Results as given in US20240262842A1, “SMALL MOLECULE INHIBITORS OF KRAS G12C MUTANT” (Merck Sharp & Dohme LLC, priority 2021, published 2024).

What was measured:
[1] = target: T1, interaction between GMPPNP-bound recombinant K-Ras4B G12C mutant protein and cRAF RAS-binding domain (cRAF-RBD) (Homo sapiens, UniProt P01116, G12C); experiment: Inhibitory activity on interaction between KRAS G12C and cRAF (Alpha technology); details: GMPPNP-bound KRAS G12C incubated with compound 25° C. 1 hour; Table 2-1; read-out: IC50
T1 construct: His-tag (N)
Method in brief: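 His-tagged K-Ras4B G12C (aa 1-169), GMPPNP-loaded, preincubated with compound 1 h at 25° C in pH 7.5 Tris buffer with MgCl2, TCEP, Tween 20. cRAF-RBD (aa 50-132) and Alpha reagents then added for 1.5 h; Alpha signal normalised to DMSO (0%) and GDP-bound KRAS (100%); IC50 from dose titration.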

[2] = tested on: MIA PaCa-2 cells; experiment: Growth inhibition activity on KRAS-G12C mutant cell line (CellTiter-Glo 3D); assay type: cell-based, human; details: Homo sapiens, MIA PaCa-2, 72 h, MIA PaCa-2, 3-day culture with compound; Table 3-1
Method in brief: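 MIA PaCa-2 cells in RPMI1640 with 10% FBS, U-bottom wells, cultured 1 day before compound (0.2% DMSO final), then 3 days at 37 °C, 5% CO2. Viability by CellTiter-Glo 3D luminescence; growth inhibition versus untreated wells gives IC50 (nM).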

T1 sequence (P01116 with tags, fused parts or gaps isoform P01116-2 G12C): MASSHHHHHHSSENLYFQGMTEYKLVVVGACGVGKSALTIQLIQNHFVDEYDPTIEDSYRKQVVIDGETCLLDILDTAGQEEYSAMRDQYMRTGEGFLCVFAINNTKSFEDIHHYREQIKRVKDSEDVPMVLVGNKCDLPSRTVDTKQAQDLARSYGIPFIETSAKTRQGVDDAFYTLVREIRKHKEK

COCc1nc2c3c(c(OC)cc2n1C)-c1cccn2c(C(=O)c4cc(F)c(NC(=O)/C=C/CNC5(C)CC5)c(F)c4)cc(c12)CCN3C [Example 174, (E)-N-(2,6-difluoro-4-(7-methoxy-10-(methoxymethyl)-9,12-dimethyl-9,12,13,14-tetrahydroimidazo[4″,5″:5′,6′]benzo[1′,2′:2,3]azocino[4,5,6-hi]indolizine-2-carbonyl)phenyl)-4-((1-methylcyclopropyl)amino)but-2-enamide]
IC50 [1]: 7.41 nM
IC50 [2]: 7.45 nM

Cn1cnc2c3c(c(C(F)(F)F)cc21)-c1cccn2c(C(=O)c4cc(F)c(NC(=O)/C=C/CN5CC[C@H]5CF)c(F)c4)cc(c12)CCO3 [Example 175, (S,E)-N-(2,6-difluoro-4-(9-methyl-7-(trifluoro-methyl)-13,14-dihydro-9H-imidazo[4″,5″:5′,6′]-benzo[1′,2′:2,3]oxocino-[4,5,6-hi]indolizine-2-carbonyl)phenyl)-4-(2-(fluoromethyl)azetidin-1-yl)but-2-enamide]
IC50 [1]: 90.4 nM
IC50 [2]: 23.3 nM

COCc1nc2c3c(c(C(F)(F)F)cc2n1C)-c1cccn2c(C(=O)c4cc(F)c(NC(=O)/C=C/CNC5(C)CC5)c(F)c4)nc(c12)CCN3C [Example 185, (E)-N-(2,6-difluoro-4-(9-(methoxymethyl)-8,11-dimethyl-6-(trifluorometh-yl)-8,11,12,13-tetrahydro-1,2a,8,10,11-pentaaza-cycloocta[1,2,3-cd:5,4-e′]diindene-2-carbonyl)-phenyl)-4-((1-methyl-cyclopropyl)amino)but-2-enamide]
IC50 [1]: 40.8 nM
IC50 [2]: 75.7 nM

Cc1cnc2c3c(c(C(F)(F)F)cn12)-c1cccn2c(C(=O)c4cc(F)c(NC(=O)/C=C/CNC5(C)COC5)c(F)c4)cc(c12)CCN3C [Example 187, (E)-N-(4-(10,13-dimethyl-7-(trifluoromethyl)-14,15-dihydro-13H-imidazo[1″,2″:1′,2′]pyrido[3′,4′:2,3]azocino[4,5,6-hi]indolizine-2-carbonyl)-2,6-difluorophenyl)-4-((3-methyloxetan-3-yl)amino)but-2-enamide]
IC50 [1]: 36.4 nM
IC50 [2]: 39 nM

Cn1cnc2c3c(c(C(F)(F)F)cc21)-c1cccn2c(C(=O)c4cc(F)c(NC(=O)/C=C/CN5C[C@@H]6C[C@H]5CO6)c(F)c4)cc(c12)CCO3 [Example 189, (E)-4-((1S,4S)-2-oxa-5-azabicyclo[2.2.1]heptan-5-yl)-N-(2,6-difluoro-4-(9-methyl-7-(trifluoro-methyl)-13,14-dihydro-9H-imidazo[4″,5″:5′,6′]-benzo[1′,2′:2,3]oxocino-[4,5,6-hi]indolizine-2-carbonyl)phenyl)but-2-enamide]
IC50 [1]: 15.2 nM
IC50 [2]: 6.1 nM

Cn1cnc2c3c(c(C(F)(F)F)cc21)-c1cccn2c(C(=O)c4cc(F)c(NC(=O)/C=C/CN5C[C@H]6C[C@@H]5CO6)c(F)c4)cc(c12)CCO3 [Example 190, (E)-4-((1R,4R)-2-oxa-5-azabicyclo[2.2.1]heptan-5-yl)-N-(2,6-difluoro-4-(9-methyl-7-(trifluoro-methyl)-13,14-dihydro-9H-imidazo[4″,5″:5′,6′]-benzo[1′,2′:2,3]oxocino-[4,5,6-hi]indolizine-2-carbonyl)phenyl)but-2-enamide]
IC50 [1]: 10.3 nM
IC50 [2]: 9.08 nM

COc1cc(N2CCCC2=O)cc2c1-c1cccn3c(C(=O)c4cc(F)c(NC(=O)/C=C/CN[C@H]5CCOC5)c(F)c4)cc(c13)CCN2C [Example 191, (S,E)-N-(2,6-difluoro-4-(9-methoxy-5-methyl-7-(2-oxopyrrolidin-1-yl)-4,5-dihydro-3H-benzo-[2,3]azocino[4,5,6-hi]-indolizine-1-carbonyl)-phenyl)-4-((tetrahydro-furan-3-yl)amino)but-2-enamide]
IC50 [1]: 97.1 nM
IC50 [2]: 167 nM

CC(=O)NC[C@@H]1CCN1C/C=C/C(=O)Nc1c(F)cc(C(=O)c2cc3c4c(cccn24)-c2c(C(F)(F)F)cc4c(ncn4C)c2OCC3)cc1F [Example 192, (S,E)-4-(2-(acetamido-methyl)azetidin-1-yl)-N-(2,6-difluoro-4-(9-meth-yl-7-(trifluoromethyl)-13,14-dihydro-9H-imidazo[4″,5″:5′,6′]benzo-[1′,2′:2,3]oxocino[4,5,6-hi]indolizine-2-carbonyl)-phenyl)but-2-enamide]
IC50 [1]: 91.5 nM
IC50 [2]: 24.3 nM

Cn1cnc2c3c(c(C(F)(F)F)cc21)-c1cccn2c(C(=O)c4cc(F)c(NC(=O)/C=C/CN5CCCOCC5)c(F)c4)cc(c12)CCO3 [Example 193, (E)-N-(2,6-difluoro-4-(9-methyl-7-(trifluorometh-yl)-13,14-dihydro-9H-imidazo[4″,5″:5′,6′]benzo-[1′,2′:2,3]oxocino[4,5,6-hi]indolizine-2-carbonyl)-phenyl)-4-(1,4-oxazepan-4-yl)but-2-enamide]
IC50 [1]: 39.6 nM
IC50 [2]: 69.5 nM

COc1cc2c(nc(C)n2C)c2c1-c1cccn3c(C(=O)c4cc(F)c(NC(=O)/C=C/CNC5(C)CC5)c(F)c4)cc(c13)CCO2 [Example 194]
IC50 [1]: 10.3 nM
IC50 [2]: 6.38 nM

Cn1cnc2c3c(c(C(F)(F)F)cc21)-c1cccn2c(C(=O)c4cc(F)c(NC(=O)/C=C/CN5CCC[C@@](C)(O)C5)c(F)c4)cc(c12)CCO3 [Example 195, (R,E)-N-(2,6-difluoro-4-(9-methyl-7-(trifluoro-meth-yl)-13,14-dihydro-9H-imidazo[4″,5″:5′,6′]-benzo[1′,2′:2,3]oxocino-[4,5,6-hi]indolizine-2-carbonyl)phenyl)-4-(3-hydroxy-3-methylpiper-idin-1-yl)but-2-enamide]
IC50 [1]: 39.4 nM
IC50 [2]: 19.3 nM

Cn1cnc2c3c(c(C(F)(F)F)cc21)-c1cccn2c(C(=O)c4cc(F)c(NC(=O)/C=C/CN5CCC[C@](C)(O)C5)c(F)c4)cc(c12)CCO3 [Example 196, (S,E)-N-(2,6-difluoro-4-(9-methyl-7-(trifluoro-methyl)-13,14-dihydro-9H-imidazo[4″,5″:5′,6′]-benzo[1′,2′:2,3]oxocino-[4,5,6-hi]indolizine-2-carbonyl)phenyl)-4-(3-hydroxy-3-methylpiper-idin-1-yl)but-2-enamide]
IC50 [1]: 35.1 nM
IC50 [2]: 31.5 nM

Cn1cnc2c3c(c(C(F)(F)F)cc21)-c1cccn2c(C(=O)c4cc(F)c(NC(=O)/C=C/CN5C6CCC5COC6)c(F)c4)cc(c12)CCO3 [Example 197]
IC50 [1]: 11.7 nM
IC50 [2]: 10.9 nM

Cn1cnc2c3c(c(C(F)(F)F)cc21)-c1cccn2c(C(=O)c4cc(F)c(NC(=O)/C=C/CN5CC6(COC6)C5)c(F)c4)cc(c12)CCO3 [Example 198, (E)-N-(2,6-difluoro-4-(9-methyl-7-(trifluorometh-yl)-13,14-dihydro-9H-imidazo[4″,5″:5′,6′]benzo-[1′,2′:2,3]oxocino[4,5,6-hi]indolizine-2-carbonyl)-phenyl)-4-(2-oxa-6-azaspiro[3.3]heptan-6-yl)but-2-enamide]
IC50 [1]: 57.1 nM
IC50 [2]: 21.4 nM

CN1CCc2cc(C(=O)c3cc(F)c(NC(=O)/C=C/CN4C[C@@H]5C[C@H]4CO5)c(F)c3)n3cccc(c23)-c2c(C(F)(F)F)cc3c(ncn3C)c21 [Example 208, (E)-4-((1S,4S)-2-oxa-5-azabicyclo[2.2.1]heptan-5-yl)-N-(4-(9,12-dimeth-yl-7-(trifluoromethyl)-9,12,13,14-tetrahydro-imidazo[4″,5″:5′,6′]benzo-[1′,2′:2,3]azocino[4,5,6-hi]indolizine-2-carbonyl)-2,6-difluorophenyl)but-2-enamide]
IC50 [1]: 35.4 nM
IC50 [2]: 11.4 nM
